These results are taken from ChEMBL document CHEMBL2010759, “Scabronine M, a novel inhibitor of NGF-induced neurite outgrowth from PC12 cells from the fungus Sarcodon scabrosus” (Bioorg Med Chem Lett, 2012).

The structures appear in SMILES notation. The source made the active and inactive calls. The rule behind the calls is not given here.

Data set [1] has as its system PC-12. In words: Inhibition of NGF-mediated neurite outgrowth in rat PC12 cells after 24 hrs by light microscopy. The data set is classed as functional, cell-based.
The test system of data set [2] is PC-12. In words: Increase of NGF-mediated neurite outgrowth in rat PC12 cells after 24 hrs by light microscopy. In kind it is functional, cell-based.
In data set [3] the test system is PC-12. As to the kind of experiment: Inhibition of NGF-mediated neurite outgrowth in rat PC12 cells at 50 uM after 24 hrs by light microscopy (reference value: 21.06 +/- 1.27 %). The data set is classed as functional. To be noted: PC-12, 24 h.
For data set [4], the system named is PC-12. In words: Cytotoxicity against rat PC12 cells at 100 uM after 2 days by MTT assay. In kind it is cell-based. Particulars: pc-12, 48 h. (In general: Tetrazolium assays rely on reduction of a dye to a coloured formazan, in cell work by metabolically active cells.)
Data set [5] has as its target T1, Mitogen-activated protein kinase 1 and 3 (ERK2 and ERK1) (Rattus norvegicus) (UniProt P63086+P21708). In words: Inhibition of NGF-induced ERK1/2 phosphorylation in rat PC12 cells at 50 uM after 15 mins by Western blotting analysis relative to beta-actin level (reference value: 0.275 +/- 0.005). In kind it is cell-based. Particulars: PC-12. (In general: Immunoblotting shows a protein as a band on a membrane.)

Data set [6] has as its system PC-12. As to the kind of experiment: Inhibition of NGF-mediated neurite outgrowth in rat PC12 cells at 100 uM after 24 hrs by light microscopy (reference value: 21.06 +/- 1.27 %). The data set is classed as functional. To be noted: PC-12, 24 h.
Data set [7] has as its system PC-12. In words: Increase of NGF-mediated neurite outgrowth in rat PC12 cells at 1 uM after 24 hrs by light microscopy (reference value: 21.06 +/- 1.27 %). The data set is classed as functional.
Data set [8] addresses T1, Mitogen-activated protein kinase 1 and 3 (ERK2 and ERK1) (Rattus norvegicus). In words: Inhibition of NGF-induced ERK1/2 phosphorylation in rat PC12 cells at 1 uM after 15 mins by Western blotting analysis relative to beta-actin level (reference value: 0.275 +/- 0.005). The data set is classed as cell-based. To be noted: PC-12.
Data set [9] deals with High affinity nerve growth factor receptor (Rattus norvegicus) (UniProt P35739). As to the kind of experiment: Inhibition of NGF-induced TrkA receptor phosphorylation in rat PC12 cells at 1 uM after 15 mins by ELISA relative to control. The data set is classed as cell-based. To be noted: PC-12.
For data set [10] the target is unchanged. In words: Inhibition of NGF-induced TrkA receptor phosphorylation in rat PC12 cells at 50 uM after 15 mins by ELISA relative to control. In kind it is cell-based. To be noted: PC-12.
Data set [11] shares this target. As to the kind of experiment: Inhibition of NGF-induced TrkA receptor phosphorylation in rat PC12 cells at 10 uM after 15 mins by ELISA relative to control. In kind it is cell-based. To be noted: PC-12. A general note: ELISA stands for enzyme-linked immunosorbent assay.
Data set [12] concerns PC-12. As to the kind of experiment: Inhibition of NGF-mediated neurite outgrowth in rat PC12 cells at 10 uM after 24 hrs by light microscopy (reference value: 21.06 +/- 1.27 %). The data set is classed as functional. To be noted: PC-12, 24 h.
Data set [13] concerns the target T1, Mitogen-activated protein kinase 1 and 3 (ERK2 and ERK1) (Rattus norvegicus). In words: Inhibition of NGF-induced ERK1/2 phosphorylation in rat PC12 cells after 15 mins by Western blotting analysis relative to beta-actin level. The data set is classed as cell-based. Particulars: PC-12.
Data set [14] shares this target. In words: Inhibition of NGF-induced ERK1/2 phosphorylation in rat PC12 cells at 10 uM after 15 mins by Western blotting analysis relative to beta-actin level (reference value: 0.275 +/- 0.005). The data set is classed as cell-based. To be noted: PC-12.
In data set [15] the target is High affinity nerve growth factor receptor (Rattus norvegicus) (UniProt P35739). As to the kind of experiment: Inhibition of NGF-induced TrkA receptor phosphorylation in rat PC12 cells after 15 mins by ELISA relative to control. The data set is classed as cell-based. To be noted: PC-12.
The subject of data set [16] is PC-12. As to the kind of experiment: Increase of NGF-induced neuronal differentiation in rat PC12 cells up to 100 uM after 24 hrs by light microscopy. In kind it is functional, cell-based.

T1 sequence (P21708 whole entry, looked up): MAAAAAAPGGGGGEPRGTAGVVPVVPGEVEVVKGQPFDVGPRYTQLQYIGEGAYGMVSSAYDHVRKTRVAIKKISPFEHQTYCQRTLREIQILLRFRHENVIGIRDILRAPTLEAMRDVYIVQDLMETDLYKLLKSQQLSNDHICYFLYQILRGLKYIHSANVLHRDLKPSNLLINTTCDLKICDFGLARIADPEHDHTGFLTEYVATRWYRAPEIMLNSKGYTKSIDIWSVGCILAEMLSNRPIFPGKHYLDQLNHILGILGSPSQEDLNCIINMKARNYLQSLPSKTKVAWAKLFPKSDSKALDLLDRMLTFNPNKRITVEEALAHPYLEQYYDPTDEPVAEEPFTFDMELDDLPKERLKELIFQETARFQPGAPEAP
T1 sequence (P63086 whole entry, looked up): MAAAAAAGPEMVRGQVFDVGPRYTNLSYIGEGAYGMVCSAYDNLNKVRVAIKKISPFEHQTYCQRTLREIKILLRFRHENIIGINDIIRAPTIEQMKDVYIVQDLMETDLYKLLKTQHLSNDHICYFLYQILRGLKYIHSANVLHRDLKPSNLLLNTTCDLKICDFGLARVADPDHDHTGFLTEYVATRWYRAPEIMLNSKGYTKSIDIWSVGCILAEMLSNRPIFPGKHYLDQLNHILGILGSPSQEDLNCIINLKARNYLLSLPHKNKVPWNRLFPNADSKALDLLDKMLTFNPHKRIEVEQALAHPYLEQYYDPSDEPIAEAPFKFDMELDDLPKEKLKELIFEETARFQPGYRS
Chain of High affinity nerve growth factor receptor (Rattus norvegicus) (P35739 whole entry): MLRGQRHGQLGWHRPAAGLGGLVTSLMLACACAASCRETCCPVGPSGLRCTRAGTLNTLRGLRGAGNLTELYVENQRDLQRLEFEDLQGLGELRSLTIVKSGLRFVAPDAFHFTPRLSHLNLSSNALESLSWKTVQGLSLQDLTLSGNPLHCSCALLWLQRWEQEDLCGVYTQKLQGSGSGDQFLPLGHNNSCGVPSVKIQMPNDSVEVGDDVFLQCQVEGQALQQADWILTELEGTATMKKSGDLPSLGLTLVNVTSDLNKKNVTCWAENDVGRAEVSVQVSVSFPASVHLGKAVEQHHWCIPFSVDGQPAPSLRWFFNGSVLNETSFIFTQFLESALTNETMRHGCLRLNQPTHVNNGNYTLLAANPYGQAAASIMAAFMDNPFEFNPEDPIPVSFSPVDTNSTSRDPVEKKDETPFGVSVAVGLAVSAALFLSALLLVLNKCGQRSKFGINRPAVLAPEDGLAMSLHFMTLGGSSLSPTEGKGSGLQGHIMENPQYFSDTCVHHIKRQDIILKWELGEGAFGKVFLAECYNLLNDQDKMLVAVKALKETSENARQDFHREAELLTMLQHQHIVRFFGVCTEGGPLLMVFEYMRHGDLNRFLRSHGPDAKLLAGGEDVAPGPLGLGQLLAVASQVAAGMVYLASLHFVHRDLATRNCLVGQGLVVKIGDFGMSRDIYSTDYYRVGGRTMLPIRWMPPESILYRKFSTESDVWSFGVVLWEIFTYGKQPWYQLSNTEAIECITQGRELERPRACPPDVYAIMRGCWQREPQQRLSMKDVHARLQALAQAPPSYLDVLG

In the case of `CC(C)[C@@H](C)/C=C/[C@@H](C)[C@H]1CC[C@@H]2[C@]1(C)CC[C@H]1[C@]23C=C[C@]2(C[C@@H](O)CC[C@]12C)OO3`, the inhibition result in the data set with PC-12 [1] is “inactive”.

On to `CC(C)[C@@H](C)/C=C/[C@@H](C)[C@H]1CC[C@@H]2[C@]1(C)CC[C@H]1[C@]23C=C[C@]2(C[C@@H](O[C@@H]4O[C@H](CO)[C@@H](O)[C@H](O)[C@H]4O)CC[C@]12C)OO3`, for which, in the data set with PC-12 [1], the inhibition entry was “inactive”.

For `CC(C)[C@@H](C)/C=C/[C@@H](C)[C@H]1CC[C@H]2C3=CC(=O)[C@@]4(O)C[C@@H](O)CC[C@]4(C)[C@@]3(O)CC[C@]12C`, the inhibition entry with PC-12 [1] was “inactive”.

With `CC(C)[C@@H](C)/C=C/[C@@H](C)[C@H]1CC[C@H]2C3=CC=C4C[C@@H](O)CC[C@]4(C)[C@H]3CC[C@]12C`, the inhibition entry in the data set with PC-12 [1] was “inactive”.

Consider `CC(C)[C@@H](C)/C=C/[C@@H](C)[C@H]1CC[C@H]2C3=CC[C@H]4C[C@@H](O)CC[C@]4(C)[C@H]3CC[C@]12C`, for which the inhibition result in the data set on PC-12 [1] is “inactive”.

On to `CC(C)[C@@H](C)/C=C/[C@@H](C)[C@H]1CC[C@H]2C3=C[C@@H](O)[C@@]4(O)C[C@@H](O)CC[C@]4(C)[C@H]3CC[C@]12C`, for which the inhibition entry with PC-12 [1] was “inactive”.

Consider `CC(C)[C@@H](C)/C=C/[C@@H](C)[C@H]1CC[C@H]2C3=C[C@@H](O)[C@@]4(O)C[C@@H](O[C@@H]5O[C@H](CO)[C@@H](O)[C@H](O)[C@H]5O)CC[C@]4(C)[C@H]3CC[C@]12C`, for which, in the data set with PC-12 [1], the inhibition entry was “inactive”.

For `CCCCCCCCCCCCCCC[C@@H](O)C(=O)N[C@@H](CO[C@@H]1O[C@H](CO)[C@@H](O)[C@H](O)[C@H]1O)[C@H](O)/C=C/CC/C=C(\C)CCCCCCCCC`, in the data set on PC-12 [1], the inhibition result was “inactive”.

Turning to `CO[C@@H]1C=C2[C@@H]3CC[C@H]([C@H](C)/C=C/[C@H](C)C(C)C)[C@@]3(C)CC[C@]2(O)[C@@]2(C)CC[C@H](O)C[C@]12O`, the inhibition entry with PC-12 [1] is “inactive”.

Turning to `C[C@H](CO)C1=C2C3=CC=C(C=O)C[C@H](O)[C@]3(C)CC[C@@]2(CO)CC1`, the inhibition entry in the data set on PC-12 [1] was “inactive”.

`C[C@H](CO)C1=C2[C@H]3CC=C(C=O)CC(=O)[C@]3(C)CC[C@@]2(C)CC1`: the inhibition result with PC-12 [1] is “Active”. In the data set on PC-12 [2], the result was Active.

In the data set on PC-12 [3], `C[C@H](CO)[C@]12CC[C@]3(C)CC[C@@]4(C)C(=O)CC(C=O)=CC[C@@H]4[C@@]31O2` (relative stereo) [SCABRONINE M] gave a neurite-bearing cells at 50 µM of 1.6%. The Activity entry was “Non-toxic” with PC-12 [4] and 23.22% in the data set with PC-12 [7]. Moreover, the Ratio in [5] is 0.21; in data set [8], 0.26; in data set [14] it was 0.24. The same compound registered a neurite-bearing cells at 100 µM with PC-12 [6] of 0.1%. The inhibition result (with PC-12 [1]; in data set [13]; in data set [15]) was “Dose-dependent effect” throughout. Also, the fold change (FC) in [9] was 1.61; in [10] it was 1.34; in data set [11], 1.4. Further, the neurite-bearing cells at 10 µM in the data set on PC-12 [12] amounted to 9.15%. Further, the outcome with PC-12 [16] was inactive.
